Results from patent US20110105382A1, “CALMODULIN-BINDING PEPTIDES THAT REDUCE CELL PROLIFERATION IN CANCER AND SMOOTH MUSCLE PROLIFERATION DISEASES” (priority 2007, published 2011).
Entries after “also recorded” stand apart in the source; their conditions may differ. Where no end group is shown, it is not given here.

How the values were obtained:
[1] = system: cyclins E1/E2 double knockout MEF; test: Cell cycle analysis, cyclin E1/E2 double knockout MEF; format: cell-based, mouse; settings: starved cells, serum stimulation 10% FBS, 24 hr (peptide) or 20 hr (CMZ)
Protocol: (§1) Cell culture conditions The isolation and culture of primary mouse aortic VSMC have was performed according to methods previously described (Afroze T, Yang L L, Wang C, Gros R, Kalair W, Hogue A N, Mungrue I N, Zhu Z, Husain M. Calcineurin-independent regulation of plasma membrane Ca2+ ATPase-4 in the vascular smooth muscle cell cycle. Am J Physiol Cell Physiol. July 2003; 285(1):C88-95). VSMCs were grown in DMEM (GIBCO/BRL, Gaithersburg, Md.) supplemented with 10% FBS (Hyclone, Logan, Utah), 50 ng/mL platelet-derived growth factor (PDGF, Sigma) and 1% penicillin-streptomycin (GIBCO/BRL). For serum starvation, cells were grown to 60% to 70% confluence, washed twice with PBS, and cultured in starvation medium (0.25% FBS-supplemented DMEM) for 72 hours to achieve Go arrest. Progression to G1/S was brought about by stimulation with 10% FBS and 50 ng/mL PDGF for 24 hours. Cells and reagents for primary human aortic VSMC culture were purchased from Cascade Biologics. Human VSMC(C-007-5C) were grown in Medium 231 with Smooth Muscle Growth Supplement (SMGS) S-007-25 and 1% penicillin-streptomycin (GIBCO/BRL). […]
Flow cytometric analysis. […] Cells were counted in a flow cytometer (FACScan, BD Biosciences), and G0/G1, S, and G2/M cell percentages were calculated with Cell Quest software (BD Biosciences).

primary mouse aortic SMC = format: cell-based
Protocol: (§2) Cell culture conditions The isolation and culture of primary mouse aortic VSMC have was performed according to methods previously described (Afroze T, Yang L L, Wang C, Gros R, Kalair W, Hogue A N, Mungrue I N, Zhu Z, Husain M. Calcineurin-independent regulation of plasma membrane Ca2+ ATPase-4 in the vascular smooth muscle cell cycle. Am J Physiol Cell Physiol. July 2003; 285(1):C88-95). VSMCs were grown in DMEM (GIBCO/BRL, Gaithersburg, Md.) supplemented with 10% FBS (Hyclone, Logan, Utah), 50 ng/mL platelet-derived growth factor (PDGF, Sigma) and 1% penicillin-streptomycin (GIBCO/BRL). For serum starvation, cells were grown to 60% to 70% confluence, washed twice with PBS, and cultured in starvation medium (0.25% FBS-supplemented DMEM) for 72 hours to achieve Go arrest. Progression to G1/S was brought about by stimulation with 10% FBS and 50 ng/mL PDGF for 24 hours. Cells and reagents for primary human aortic VSMC culture were purchased from Cascade Biologics. Human VSMC(C-007-5C) were grown in Medium 231 with Smooth Muscle Growth Supplement (SMGS) S-007-25 and 1% penicillin-streptomycin (GIBCO/BRL). Cyclin E1/E2 double knockout mouse embryonic fibroblasts (MEF) were kindly provided by Dr. P. Sicinski (Harvard Medical School), and maintained in DMEM with 10% FBS (Hyclone) and 1% penicillin-streptomycin (GIBCO/BRL). Go arrest of MEF was achieved by starvation for 48 h in medium lacking FBS. Mouse embryonic fibroblasts (MEF) were maintained for normal culture in 10% FBS-supplemented DMEM. For the starvation of MEF, cells were cultured in starvation medium without FBS for 48 hours to achieve Go arrest. HeLa (human cervical cancer cell), Saos-2 (human osteosarcoma cell) and A549 (human lung cancer cell) were cultured in 10% FBS-supplemented DMEM.
(§3) MTT colorimetric survival assay. Active mitochondria of living cells can cleave MTT to produce formazan, the amount of which is directly proportional to the number of living cells. Cell survival was assessed (Denizot, 1986). Cells in 96-well plate were washed two times with PBS followed by 4 hr of incubation at 37° C. with 1 mg/ml of MTT (in phenol red free DMEM supplemented with 2 mM of L-glutamine & 1 mM of sodium pyruvate) in a reaction volume of 100 μl. After removing MTT solution, DMSO was added to dissolve formazan crystals. Plate was shaken for 5 min at 55° C. for complete dissolve. Dye absorbance in viable cells was measured at 570 nm with 630 nm as a reference wavelength. All experiments were repeated at least 3 times, and each experimental condition was repeated in at least quadruplicate wells in each experiment.
Nucleofection. For peptides delivery via Nucleofector technology, 1×10^6 cells were harvested, resuspended in 100 μl of Nucleofector solution (for VSMC: Cat. No. VPI-1004; for MEF: Cat. No.: VPD-1005, both provided by Amaxa GmBH, Köln, Germany) and mixed with 100 nmole (in 10 μl) of each peptide. The cell solution was transferred into a kit-provided cuvette and positioned into a Nucleofector device. Subsequently, the transfection was performed with a single pulse using the preprogrammed nucleofection program (A-33 for VSMC; T-20 for MEF) according to the manufacturer's recommendation. Following nucleofection, the cells were transferred into 96-well plate (2K or 5K cells per well for MTT assay) or T25 culture flasks (for FACS analysis) containing pre-warmed stem cell medium using kit-provided plastic pipettes to prevent cell damage and the cells were cultured at 37° C. in 5% CO2.

MEF = test: 3H-thymidine incorporation assay, MEF; format: cell-based, mouse; settings: 10 and 100 μM for 1.0 h, 48 h after treatment; listed as TAT-CBS
Protocol: as §1, with “Biologics.” for “Biologics. Human VSMC(C-007-5C) were grown in Medium 231 with Smooth Muscle Growth Supplement (SMGS) S-007-25 and 1% penicillin-streptomycin (GIBCO/BRL).”
(§4) ^3H-thymidine incorporation proliferation assay. […] Cells were grown at 37° C. and analyzed at 24, 48 and 72 h after ^3H-thymidine exposure. […] Solubilized contents of wells were removed and added to 2.5 ml of scintillation fluid (ReadySafe™ Cocktail, Beckman Coulter, Product No. 141349). Radioactivity was measured in a scintillation counter (Beckman Coulter, LS 6500).

[2] = system: Saos-2 (human osteosarcoma); test: MTT proliferation assay, Saos-2; format: cell-based; settings: 100 μM, MTT after 2 days
Protocol: as §2, §3

[3] = system: A549 (human lung cancer cell); test: MTT proliferation assay, A549; format: cell-based; settings: 100 μM, MTT after 2 days
Protocol: as §2, §3

[4] = system: primary human aortic VSMC; test: 3H-thymidine incorporation assay, human aortic VSMC; format: cell-based; settings: 10 and 100 μM for 1.0 h, 72 h after treatment; listed as TAT-CBS
Protocol: as §1, with “Biologics.” for “Biologics. Human VSMC(C-007-5C) were grown in Medium 231 with Smooth Muscle Growth Supplement (SMGS) S-007-25 and 1% penicillin-streptomycin (GIBCO/BRL).”
as §4

[5] = system: HeLa (human cervical cancer cell); test: MTT proliferation assay, HeLa; format: cell-based; settings: 100 μM, MTT after 2 days
Protocol: as §2, §3

Cyclin E1/E2 KO MEF = test: 3H-thymidine incorporation assay, Cyclin E1/E2 KO MEF; format: cell-based, mouse; settings: 10 and 100 μM for 1.0 h, 48 h after treatment; listed as TAT-CBS
Protocol: as §1, with “Biologics.” for “Biologics. Human VSMC(C-007-5C) were grown in Medium 231 with Smooth Muscle Growth Supplement (SMGS) S-007-25 and 1% penicillin-streptomycin (GIBCO/BRL).”
as §4

Compound	cell cycle progression into S phase, cyclins E1/E2 double knockout MEF [1]	IC50 (primary mouse aortic SMC)	maximum level of inhibition of VSMC proliferation (primary mouse aortic SMC)	3H-thymidine incorporation (S-phase entry), MEF (MEF)	proliferation of Saos-2 cells (MTT) [2]	proliferation of A549 cells (MTT) [3]	3H-thymidine incorporation (S-phase entry), human aortic VSMC [4]	proliferation of HeLa cells (MTT) [5]	3H-thymidine incorporation (S-phase entry), Cyclin E1/E2 KO MEF (Cyclin E1/E2 KO MEF)
Clc1ccc(C(c2ccc(Cl)cc2)n2cc[n+](CC(OCc3ccc(Cl)cc3Cl)c3ccc(Cl)cc3Cl)c2)cc1 (stereo not drawn) [calmidazolium]	did inhibit	–	–	–	–	–	–	–	–
RRRQRRKKRGGGAEFSARSRKRKANVTVFLQD [TAT-SEQ ID NO:2]	–	8.89 ± 1.24 µM	70%	observed; also recorded: dose-dependent, anti-proliferative effect	inhibited	inhibited	dose-dependent inhibitory effect; also recorded: inhibited; also recorded: dose-dependent, anti-proliferative effect	inhibited	not and not able to produce an anti-proliferative effect
